# Measured values published in PMC6198068, “Discovery of a Novel Nav1.7 Inhibitor From Cyriopagopus albostriatus Venom With Potent Analgesic Efficacy” (Frontiers in Pharmacology, 2018).
# Where a SMILES comes first, the peptide text is derived from it. Bridges are numbered along the chain shown (N, C = ends).
# Columns and labels:
# Nav1.7 = molecular target: T1, Nav1.7 (Homo sapiens, UniProt Q15858); test: Steady-state fast inactivation and fast inactivation time constants of Nav1.7; type: cell-based; details: 0.2 μM
# T1 construct: expressed in transfected cells; host or cells: HEK293T
# Excerpt: (§1) The cDNA genes encoding rat Nav1.4 and human Nav1.7 were subcloned into vectors pRGB4 and pcDNA3.1-mod, respectively. Mutations of rNav1.4 (N655D, Q657E, and N655D/Q657E) and hNav1.7 (D816N, E818Q, and D816N/E818Q) were constructed using the Gene Tailor Site-Directed Mutagenesis system (Invitrogen, Carlsbad, CA, United States), according to the manufacturer’s instructions. Nav1.2–Nav1.7 and mutant plasmids together with eGFP were transiently transfected into HEK293T cells while Nav1.8 together with eGFP was transiently transfected into ND7/23 cells by Lipofectamine 2000 (Invitrogen, Carlsbad, CA, United States). […] Cells with green fluorescent protein fluorescence were selected for whole-cell patch-clamp recordings 24 h after transfection.
# (§2) Whole-cell patch-clamp recordings were performed at room temperature (20–25°C) using an EPC 10 USB Patch Clamp Amplifier (HEKA, Elektronik, Lambrecht, Germany). […] Data was analyzed by software Igo Pro 6.10A (WaveMetrics, Lake Oswego, OR, United States), SigmaPlot 10.0 (Sigma-Aldrich, St. Louis, MO, United States), OriginPro 8 (OriginLab Corp., Northampton, MA, United States), and GraphPad Prism 5 (GraphPad Software, San Diego, CA, United States). […]
# Fast inactivation time constants were calculated by fitting current decay traces with a single exponential function using the I–V protocol described above. […]
# Nav1.7/E818Q = test: Whole-cell patch-clamp, Nav1.7/E818Q in HEK293T cells; type: cell-based, human; details: 1 μM, n = 5 cells
# Excerpt: as §1, with “States). Additionally, plasmids β1- and β2-eGFP encoding the human β1 and β2 subunits, respectively, were co-transfected with those encoding WT Nav1.7 and Nav1.7 mutations in HEK293T cells.” for “States).”
# as §2
# [1] = Adverse effects at the doses used in the mouse pain models; type: in vivo, ICR mice; details: dose of Ca2a used in this study (50–200 μg/kg i.p.)
# Method: (§3) The ICR mice (18–22 g) used in this study were purchased from the Experimental Animal Center of SLac-kinda (Changsha, China). The animals were maintained at 20–25°C and freely allowed to standard rodent chow and water ad libitum. Ethical approval for in vivo experiments in animals was approved by the Animal Care and Use Committee (ACUC) at the Hunan Province Animal Management Office (HPAMO).
# hot plate test in mice = test: Hot plate test; type: in vivo, ICR mice; details: 55 ± 1°C, 30 min after injection, control 10.6 ± 1.1 s, mean ± SEM, n = 6–8
# Method: as §3
# According to a previous method ([Meng et al., 2017]), a hot plate apparatus (model YLS-21A, Jinan, China) maintained at 55 ± 1°C, was used to measure the pain threshold of mice subjected to a thermal stimulus. Each female mouse was placed on hot plate to observe its pain response (hind-paw-licking or jumping) acted as its own control. The mice whose latent response times were shorter than 5 s or longer than 30 s were excluded from the test.
# T1 sequence (O60939 30-215): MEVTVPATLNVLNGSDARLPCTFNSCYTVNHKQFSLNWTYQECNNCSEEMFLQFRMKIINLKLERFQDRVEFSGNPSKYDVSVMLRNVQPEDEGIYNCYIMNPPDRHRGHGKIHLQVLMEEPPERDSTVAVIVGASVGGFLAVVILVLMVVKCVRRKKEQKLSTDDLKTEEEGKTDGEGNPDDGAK
# T1 sequence (Q15858 other isoform, or with tags, fused parts or gaps): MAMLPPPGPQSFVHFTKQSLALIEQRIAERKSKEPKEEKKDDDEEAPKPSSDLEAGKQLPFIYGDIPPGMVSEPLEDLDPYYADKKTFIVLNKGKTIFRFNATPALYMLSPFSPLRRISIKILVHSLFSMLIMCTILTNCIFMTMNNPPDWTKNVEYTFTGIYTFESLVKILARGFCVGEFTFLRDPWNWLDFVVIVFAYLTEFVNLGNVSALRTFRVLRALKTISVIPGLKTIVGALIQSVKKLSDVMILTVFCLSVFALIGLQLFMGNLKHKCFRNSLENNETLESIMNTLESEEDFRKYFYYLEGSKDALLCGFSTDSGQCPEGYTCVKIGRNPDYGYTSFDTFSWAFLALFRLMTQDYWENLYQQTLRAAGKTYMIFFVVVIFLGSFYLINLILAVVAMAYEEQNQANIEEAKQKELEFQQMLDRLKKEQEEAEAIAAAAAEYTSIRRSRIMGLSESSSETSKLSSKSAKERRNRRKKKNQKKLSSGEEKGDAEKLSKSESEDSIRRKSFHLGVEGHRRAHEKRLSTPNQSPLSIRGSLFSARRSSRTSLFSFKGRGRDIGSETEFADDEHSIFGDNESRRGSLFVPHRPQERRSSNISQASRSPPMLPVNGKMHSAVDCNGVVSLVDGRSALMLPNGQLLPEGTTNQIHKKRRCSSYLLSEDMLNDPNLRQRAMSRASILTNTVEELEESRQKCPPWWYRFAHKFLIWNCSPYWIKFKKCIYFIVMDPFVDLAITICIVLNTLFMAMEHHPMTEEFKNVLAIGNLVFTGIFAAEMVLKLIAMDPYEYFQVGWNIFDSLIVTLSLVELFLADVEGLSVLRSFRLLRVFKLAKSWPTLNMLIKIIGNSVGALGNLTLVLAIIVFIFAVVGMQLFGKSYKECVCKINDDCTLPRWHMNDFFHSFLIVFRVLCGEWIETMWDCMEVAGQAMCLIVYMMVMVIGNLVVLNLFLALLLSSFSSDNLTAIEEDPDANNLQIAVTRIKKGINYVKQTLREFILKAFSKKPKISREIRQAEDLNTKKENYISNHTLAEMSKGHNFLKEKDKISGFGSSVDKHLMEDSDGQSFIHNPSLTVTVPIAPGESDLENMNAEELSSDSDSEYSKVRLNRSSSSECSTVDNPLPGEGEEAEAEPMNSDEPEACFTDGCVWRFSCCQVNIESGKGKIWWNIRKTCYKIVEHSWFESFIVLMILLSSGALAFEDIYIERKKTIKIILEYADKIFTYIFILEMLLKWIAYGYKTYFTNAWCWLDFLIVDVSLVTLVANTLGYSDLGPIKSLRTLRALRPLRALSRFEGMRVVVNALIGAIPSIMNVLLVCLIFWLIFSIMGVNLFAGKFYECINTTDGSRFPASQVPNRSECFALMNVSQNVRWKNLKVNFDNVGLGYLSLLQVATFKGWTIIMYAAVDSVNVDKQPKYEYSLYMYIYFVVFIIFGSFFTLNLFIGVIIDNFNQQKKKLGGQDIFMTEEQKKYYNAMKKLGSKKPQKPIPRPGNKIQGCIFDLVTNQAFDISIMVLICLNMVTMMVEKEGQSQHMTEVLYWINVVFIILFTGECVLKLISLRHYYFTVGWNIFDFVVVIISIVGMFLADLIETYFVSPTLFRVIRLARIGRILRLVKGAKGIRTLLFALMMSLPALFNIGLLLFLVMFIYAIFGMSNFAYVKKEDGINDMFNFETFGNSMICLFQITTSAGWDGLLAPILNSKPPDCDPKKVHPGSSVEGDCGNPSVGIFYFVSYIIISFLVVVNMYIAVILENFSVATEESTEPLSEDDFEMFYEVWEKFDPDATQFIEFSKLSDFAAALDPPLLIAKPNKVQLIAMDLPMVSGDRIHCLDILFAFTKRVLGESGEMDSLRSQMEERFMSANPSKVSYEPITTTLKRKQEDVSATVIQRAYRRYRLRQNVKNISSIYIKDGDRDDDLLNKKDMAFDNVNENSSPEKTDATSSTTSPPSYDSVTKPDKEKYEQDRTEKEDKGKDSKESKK
# T1 sequence (Q07699 19-218, further chain): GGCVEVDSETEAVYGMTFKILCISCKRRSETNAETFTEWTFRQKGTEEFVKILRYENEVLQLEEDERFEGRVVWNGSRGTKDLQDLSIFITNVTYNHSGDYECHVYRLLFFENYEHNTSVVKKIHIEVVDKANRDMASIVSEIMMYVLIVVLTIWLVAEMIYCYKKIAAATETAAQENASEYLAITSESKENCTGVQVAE
smiles,measurement,setting,value
"CC(C)C[C@H](NC(=O)[C@H](CC(=O)O)NC(=O)[C@H](Cc1ccc(O)cc1)NC(=O)[C@H](CCCCN)NC(=O)[C@@H]1CSSC[C@@H]2NC(=O)[C@H](CCCCN)NC(=O)[C@H](CC(=O)O)NC(=O)[C@H](CC(N)=O)NC(=O)[C@H](CO)NC(=O)[C@@H]3CCCN3C(=O)[C@H](CC(N)=O)NC(=O)[C@@H]3CSSC[C@H](NC(=O)[C@H](C(C)C)NC(=O)[C@H](CC(C)C)NC(=O)[C@H](CO)NC(=O)[C@H](CO)NC(=O)[C@H](CO)NC(=O)[C@H](CCCCN)NC(=O)[C@H](CSSC[C@H](NC(=O)[C@H](C)N)C(=O)N[C@@H](CC(C)C)C(=O)NCC(=O)N[C@@H](Cc4ccccc4)C(=O)NCC(=O)N[C@@H](CCC(=O)O)C(=O)N[C@@H](CCCCN)C(=O)N3)NC2=O)C(=O)N[C@@H](CO)C(=O)N[C@@H](CCC(N)=O)C(=O)N[C@@H](CCCCN)C(=O)N[C@@H](Cc2c[nH]cn2)C(=O)N[C@@H](CCCCN)C(=O)N[C@@H](Cc2c[nH]c3ccccc23)C(=O)N1)C(=O)O [Ca2a] (H-ACLGFGEKCNPSNDKCCKSSSLVCSQKHKWCKYDL-OH; disulfide 2-17, 9-24, 16-31 (inferred); N-terminus and C-terminus assumed)",fast inactivation time constants of Nav1.7,"Nav1.7; between −15 and 10 mV, P > 0.05, two-way ANOVA, n = 6–11 cells",did not alter the inactivation time constants
same,half-inactivation voltage of Nav1.7 (steady-state fast inactivation),"Nav1.7; control −70.2 ± 0.8 mV, 500-ms prepulse, mean ± SEM, n = 10",−70.7 ± 1.1 mV
same,activity on Nav1.7/E818Q,Nav1.7/E818Q,no activity
same,adverse effects,[1],does not cause significant adverse effects
same,"latency time, hot plate",hot plate test in mice; 50 μg/kg i.p.,12.9 ± 0.8 s
same,"latency time, hot plate",hot plate test in mice; 100 μg/kg i.p.,15.4 ± 1.2 s
same,"latency time, hot plate",hot plate test in mice; 200 μg/kg i.p.,18.1 ± 1.6 s
